# Source: patent US20100021567A1, “Peganine Isolated from Anisotes Trisulcus L. as a Smoking Deterrent and Anorxigenic Agent” (priority 2006, published 2010)
# “Also recorded” adds a separate entry of the source.
# Tests used:
# Albino mice = assay: Nicotine-induced convulsions and death in mice; type: in vivo
# Description: Albino mice were divided into different groups (N=5) and injected with different doses of nicotine dissolved in water. The animals were injected (i.p) with doses 0.8, 1.6, 3.2 and 6.4 mg/kg. The animals were continuously observed for 2 hours for appearance of any changes in behavior such as tremors, convulsions (clonic or tonic), abnormal movements changes in tail position and shapes, changes in locomotor activity and death.
# Then after 5 minutes nicotine LD25 was then administered and the animals were observed continuously for any changes in behavior, convulsions or death. The time of convulsions and death were recorded.
# [1] = cited from earlier work
# Male Wistar rats = assay: Nicotine and food consumption in rats; type: in vivo
# Description: Male Wistar rats (200 g body weight) were divided at random into various groups (N=6 animals per group). Each animal was placed in a stainless steel cage and provided with a known weight of normal rat chow food pellets and drinking bottle containing a known volume of aqueous 0.025% sodium carboxymethylcellulose containing either nicotine acid tartarate to provide a final concentration of 40 μg/ml (in case of control groups) or the same concentration of nicotine plus the indicated concentrations of the whole extract, one of its fractions or peganine. The latter were added in form of their emulsions in 0.25% aqueous sodium carboxymethylcellulose in volumes that provide a final concentration of 0.025% of sodium carboxymethylcellulose in the drinking fluid. The animals were allowed both food and the drinking liquid ad libitum. The room temperature where the animals were placed was maintained at 23±2° C. The light cycle was kept at 12 h light and 12 h dark. The relative humidity was maintained at 75±5%. Both food and drinking liquid consumptions were measured every 2 days and at the end of the treatment which continued for complete seven consecutive days.
# All results were reported as their means±s. e. mean with N=number of experiments. Statistical significance between control and treated groups were performed using student's t-test.
# [2] = tested on: dopamine turnover in the mesolimbic system; conditions: dose 5.6 mg/kg; nicotine 1 mg/kg; rats; cited from earlier work
# [3] = in vivo; cited from earlier work
# [4] = peganine 140 mg/100 ml (1.4 mg/ml) + nicotine 40 μg/ml, vs control
# [5] = peganine 140 mg/100 ml + nicotine 40 μg/ml in drinking water, 7 days
compound,measurement,setting,value
CN1CCCC1c1cccnc1 (stereo not drawn) [Nicotine],Actions,Albino mice; Nicotine 1.6 mg/kg (i.p),f) No death; also recorded: a) Increase in locomotor activity; also recorded: b) Raising of tail; also recorded: c) Tremors; also recorded: d) Shaking of the body; also recorded: e) Increase in respiratory rate
same,Actions,Albino mice; Nicotine 3.2 mg/kg (i.p),a) Tremors; also recorded: b) Fanning of tail; also recorded: c) Convulsions (Clonic-type); also recorded: d) Tremors; also recorded: e) Salivation; also recorded: f) No death
same,Actions,Albino mice; Nicotine 6.4 mg/kg (i.p),a) Circular movements; also recorded: b) Convulsions; also recorded: c) Death after 3 minutes
"O[C@H]1CCN2Cc3ccccc3N=C12 [peganine, 1,2,3,9-tetrahydropyrolo[2,1-b]quinazolin-3-ol]",Effect on isolated gut,[1]; isolated gut,inhibit peristalsis of isolated gut
same,Cardiac effect,[1]; isolated heart,negative inotropic effect of peganine with reduced coronary flow
same,% decrease in food consumed,Male Wistar rats; [4],77.8%
same,% decrease in nicotine consumed,Male Wistar rats; [4],79%
same,Liquid consumed daily per 200 g rat per day,Male Wistar rats; [5],5.5 ± 0.13 mL
same,Quantity of food consumed per 200 g rat per day,Male Wistar rats; [5],5.66 ± 0.3 g
same,Quantity of nicotine consumed per day,Male Wistar rats; [5],0.22 mg
c1cnc2cc3c(cc2n1)[C@@H]1CNC[C@H]3C1 [vareniciline],Effect on nicotine-induced increase in dopamine turnover,[2],significantly blocked
(−)-cytisine,Blood brain barrier penetrability,[3],poor blood brain barrier penetrability
